Values of other authors, collected in US20210046029A1, “LEVODOPA AND CARBIDOPA INTESTINAL GEL AND METHODS OF USE” (AbbVie Inc., priority 2015, published 2021).

Target: T1, peripheral dopa decarboxylase (Homo sapiens, UniProt P20711)
T1 construct: host or cells: endogenous enzyme of peripheral tissues in vivo
T1 sequence (P20711 1-480): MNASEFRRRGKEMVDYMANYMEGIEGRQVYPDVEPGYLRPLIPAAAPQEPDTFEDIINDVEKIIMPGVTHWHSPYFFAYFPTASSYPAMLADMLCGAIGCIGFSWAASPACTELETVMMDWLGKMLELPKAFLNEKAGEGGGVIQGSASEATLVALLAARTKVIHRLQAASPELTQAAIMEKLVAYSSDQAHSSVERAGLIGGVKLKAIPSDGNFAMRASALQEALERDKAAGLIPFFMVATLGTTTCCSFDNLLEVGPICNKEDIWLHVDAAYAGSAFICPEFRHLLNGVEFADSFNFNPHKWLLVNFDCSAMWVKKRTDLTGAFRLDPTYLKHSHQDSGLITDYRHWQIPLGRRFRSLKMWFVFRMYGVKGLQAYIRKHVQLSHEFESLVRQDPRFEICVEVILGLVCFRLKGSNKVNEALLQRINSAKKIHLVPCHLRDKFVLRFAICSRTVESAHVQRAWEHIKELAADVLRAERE
Conditions: in vivo

C[C@@](Cc1ccc(O)c(O)c1)(NN)C(=O)O [carbidopa, (2S)-3-(3,4-dihydroxy-phenyl)-2-hydrazino-2-methylpropanoic acid]
Carbidopa dose that saturates peripheral dopa decarboxylase: 70-100 mg a day
